Measurements taken from patent publication US12391726B2, “Ursolic acid morpholine salt” (EMMYON, INC., priority 2017, dated 2025).
Where a name gives a salt, the structure may show the parent alone. Read-outs that look alike come from different tables or passages of the source. Marks after values point to notes of the source that are not given here.

How the values were obtained:
male C57BL/6 mice [1] = test: Direct comparison to molar-matched ursolic acid in obesity-induced glucose intolerance (high-fat chow, 7 weeks); format: in vivo; settings: 6 h fast, 0.050% ursolic acid or 0.059% morpholine salt, P<0.01
Description: Weight-matched cohorts of 8-week old male C57BL/6 mice were randomized to receive ad libitum access to either high-fat chow supplemented with 0.050% ursolic acid, or high-fat chow supplemented with a molar-matched dose of ursolic acid-morpholine salt (0.059%). After mice had consumed the diets for 7 weeks, mice were fasted for 6 hours and then subjected to glucose tolerance testing. […] Data are means±SEM from 10 mice per cohort.

male C57BL/6 mice [2] = settings: 0.059% in high-fat chow, 8 weeks, 6 h fast; control 37,122±1,339; P<0.01
Description: Weight-matched cohorts of 8-week old male C57BL/6 mice were randomized to receive ad libitum access to either high-fat chow (control) or high-fat chow supplemented with 0.059% ursolic acid-morpholine salt. After mice had consumed the diets for 8 weeks, mice were fasted for 6 hours and then subjected to glucose tolerance testing. Results are shown in FIG. 3, which is a graph depicting glucose tolerance testing results. Data are means±SEM from 15 mice per cohort.

male C57BL/6 mice [3] = settings: quadriceps, 0.059% in standard chow, 7 weeks, vs control
Description: (§1) Weight-matched cohorts of 8-week old male C57BL/6 mice were randomized to receive ad libitum access to either standard chow (control) or standard chow supplemented with 0.059% ursolic acid-morpholine salt. After mice had consumed these diets for 7 weeks, quadriceps muscles were dissected, fixed, cross-sectioned, stained with hematoxylin and eosin, and subjected to photomicrography. FIG. 1A is a photomicrograph of quadriceps skeletal muscle fibers from the control group. FIG. 1B is a photomicrograph of quadriceps skeletal muscle fibers from the ursolic acid-morpholine salt group.

diet-induced obese mice = test: Obesity and blood glucose testing (high-fat chow, 9 weeks); format: in vivo; settings: 0.059% in high-fat chow
Description: Weight-matched cohorts of 8-week old male C57BL/6 mice were randomized to receive ad libitum access to either high-fat chow (control) or high-fat chow supplemented with 0.059% ursolic acid-morpholine salt. Just prior to starting these diets, mice were weighed and subjected to body composition analysis by NMR. After mice had consumed the diets for 9 weeks, body weight and body composition were re-assessed, retroperitoneal and epididymal fat pads were dissected and weighed, and non-fasting blood glucose was measured.

male C57BL/6 mice [4] = settings: 0.059% in standard chow, 7 weeks
Description: Weight-matched cohorts of 8-week old male C57BL/6 mice were randomized to receive ad libitum access to either standard chow (control) or standard chow supplemented with 0.059% ursolic acid-morpholine salt. After mice had consumed these diets for 7 weeks, in vivo, grip strength was measured, mice were weighed, body composition was assessed by NMR, and quadriceps muscles were dissected for histological analysis of skeletal muscle fiber cross-sectional diameter.

male C57BL/6 mice [5] = test: Comparative grip strength testing for ursolic acid and salts thereof (standard chow, 6 weeks); format: in vivo
Description: Weight-matched cohorts of 8-week old male C57BL/6 mice were randomized to receive ad libitum access to either standard chow (control) or standard chow supplemented with either 0.050% ursolic acid, 0.200% ursolic acid, or one of the indicated ursolic acid salts: ursolic acid-ethanolamine salt; ursolic acid-tris(hydroxymethyl)aminomethane salt, hereinafter referred to as ursolic acid-“tris” salt; ursolic acid-lysine salt; ursolic acid-diethanolamine salt; ursolic acid-morpholine salt; or ursolic acid-piperazine salt. The ursolic acid-diethanolamine salt and ursolic acid-morpholine salt were prepared as described above. Ursolic acid was commercially obtained, and was used as a starting material to make the other ursolic acid salts according to techniques analogous to those above and known in the art. The doses of ursolic acid salts were molar-matched to either 0.050% ursolic acid (i.e. 0.057% ursolic acid-ethanolamine salt, 0.063% ursolic acid-tris salt, 0.066% ursolic acid-lysine salt, 0.059% ursolic acid-morpholine salt, and 0.059% ursolic acid-piperazine salt) or to 0.048% ursolic acid (i.e. 0.060% ursolic acid-diethanolamine salt). After mice had consumed these diets for 6 weeks, in vivo grip strength was measured.

male C57BL/6 mice [6] = settings: retroperitoneal fat pads, 0.059% in standard chow, 7 weeks, vs control
Description: as §1, with “retroperitoneal fat pads” for “quadriceps muscles”, “2A” for “1A”, “adipocytes from retroperitoneal fat pads” for “quadriceps skeletal muscle fibers”, “2B” for “1B”

male C57BL/6 mice [7] = settings: high-fat chow, 8 weeks, 0.500% Ursolic Acid or 0.059% morpholine salt
Description: Weight-matched cohorts of 8-week old male C57BL/6 mice were randomized to receive ad libitum access to either high-fat chow (control), high-fat chow supplemented with 0.050% ursolic acid, or high-fat chow supplemented with a molar-matched dose of ursolic acid-morpholine salt (0.059%). Just prior to starting these diets, mice were weighed and subjected to body composition analysis by NMR. After mice had consumed the diets for 8 weeks, body weight and body composition were re-assessed, retroperitoneal and epididymal fat pads were dissected and weighed, and skeletal muscles (tibialis anterior, gastrocnemius, soleus, quadriceps and triceps) were dissected and weighed. In each mouse, the total dissected skeletal muscle weight (combined weight of bilateral tibialis anterior, gastrocnemius, soleus, quadriceps and triceps muscles) was normalized to the final body weight. Data are means±SEM from 10 mice per cohort.

C2C12 myotubes = test: Total cellular protein in cultured C2C12 myotubes (in vitro model of skeletal muscle); format: cell-based; settings: 48 hours, 10% FBS
Description: A direct, side-by-side comparison of ursolic acid and ursolic acid-morpholine salt was performed in an in vitro model of skeletal muscle. C2C12 myoblasts were cultured and fully differentiated into post-mitotic skeletal myotubes, then incubated for 48 hours with 10% fetal bovine serum (FBS) plus the indicated concentrations of ursolic acid or ursolic acid-morpholine salt. Myotubes were then harvested for assessment of total cellular protein, which increases as myotubes undergo hypertrophy. (See Dyle et al., Systems-based discovery of tomatidine as a natural small molecule inhibitor of skeletal muscle atrophy, Journal of Biological Chemistry 289, (2014) 14913-14924.) Total protein in each sample was normalized to the amount of in vehicle-treated myotubes. […] Results are shown in FIG. 6, which is a graph depicting results from the direct, side-by-side comparison of ursolic acid and ursolic acid-morpholine salt in the cultured C2C12 myotubes in vitro model of skeletal muscle.

male C57BL/6 mice [8] = test: Comparison with a maximally effective dose of ursolic acid (high-fat diet, 7 weeks, glucose tolerance test); format: in vivo; settings: 0.059% morpholine salt vs 0.20% w/w ursolic acid
Description: After 7 weeks on the diets, mice were fasted for 6 hours and were then subjected to glucose tolerance tests.

C[C@H]1[C@H](C)CC[C@]2(C(=O)O)CC[C@]3(C)C(=CC[C@@H]4[C@@]5(C)CC[C@H](O)C(C)(C)[C@@H]5CC[C@]43C)[C@H]12 [Ursolic Acid-Morpholine Salt, ursolic acid morpholine salt]
Fasting blood glucose (male C57BL/6 mice [1]): 140.6 ± 7.8 mg/dL
Glucose tolerance test area under the curve (AUC) (male C57BL/6 mice [1]): 32,606±2,471
Glucose tolerance test area under the curve (AUC) (male C57BL/6 mice [2]): 31,383±1,869
Skeletal muscle fiber size (FIGS. 1A and 1B) (male C57BL/6 mice [3]): increased skeletal muscle fiber size
Epididymal Fat Pad Wt (diet-induced obese mice): 1804.0 ± 161.5 mg
Final % Fat (diet-induced obese mice): 31.8 ± 3.1 %
Final % Lean (diet-induced obese mice): 55.3 ± 2.4 %
Final Body Wt (diet-induced obese mice): 38.9 ± 1.2 g
Final Fat Mass (diet-induced obese mice): 12.8 ± 1.4 g
Final Lean Mass (diet-induced obese mice): 21.3 ± 0.6 g
Retroperitoneal Fat Pad Wt (diet-induced obese mice): 731.8 ± 86.9 mg
Obesity in diet-induced obese mice (diet-induced obese mice; conclusion from Table III): reduced obesity
Blood Glucose (diet-induced obese mice; non-fasting): 177.7 ± 9.9 mg/dL
Final Body Wt (male C57BL/6 mice [4]): 34.6 ± 1.0 g
Final Grip Strength (male C57BL/6 mice [4]): 181.9 ± 2.4 g
Final % Fat (male C57BL/6 mice [4]; NMR): 21.4 ± 2.9 %
Final % Lean (male C57BL/6 mice [4]; NMR): 61.0 ± 2.2 %
Final Fat Mass (male C57BL/6 mice [4]; NMR): 7.8 ± 1.2 g
Final Lean Mass (male C57BL/6 mice [4]; NMR): 20.8 ± 0.3 g
Skeletal muscle hypertrophy (male C57BL/6 mice [4]; conclusion from Table II): stimulated skeletal muscle hypertrophy
Muscle fiber diameter (male C57BL/6 mice [4]; quadriceps, >4200 fibers per diet): 44.8 ± 0.2 μm
Potency and efficacy compared with native ursolic acid and other ursolic acid salts (male C57BL/6 mice [5]; conclusion from Table I grip strength data): more potent and efficacious
Grip Strength (% Change vs. Control) (male C57BL/6 mice [5]; standard chow supplemented, 6 weeks, doses molar-matched to 0.050% ursolic acid (0.048% for diethanolamine salt): 0.050% ursolic acid, 0.057% ethanolamine, 0.063% tris, 0.066% lysine, 0.060% diethanolamine, 0.059% morpholine, 0.059% piperazine salt, mean ± SEM, 12 mice): 11.3 ± 2.1 %
Adipocyte size (FIGS. 2A and 2B) (male C57BL/6 mice [6]): decreased adipocyte size
Epididymal Fat Pad Wt (male C57BL/6 mice [7]): 1713.8 ± 139.8 ^b mg
Final % Fat (male C57BL/6 mice [7]): 31.4 ± 2.8 ^b %
Final % Lean (male C57BL/6 mice [7]): 57.3 ± 2.1 ^b %
Final Body Wt (male C57BL/6 mice [7]): 36.6 ± 0.9 ^b g
Final Fat Mass (male C57BL/6 mice [7]): 11.6 ± 1.2 ^b g
Final Lean Mass (male C57BL/6 mice [7]): 20.9 ± 0.7 ^a g
Retroperitoneal Fat Pad Wt (male C57BL/6 mice [7]): 709.8 ± 72.2 ^b mg
Skeletal Muscle Wt (mg/g Final Body Wt) (male C57BL/6 mice [7]; total dissected muscle weight normalized to final body weight): 29.1 ± 1.0 ^b mg/g Final Body Wt
Efficacy relative to ursolic acid (total cellular protein) (C2C12 myotubes): 3 fold
Potency relative to ursolic acid (total cellular protein) (C2C12 myotubes): 3 fold
Total cellular protein (FIG. 6) (C2C12 myotubes; normalized to vehicle-treated, dose-dependent): significantly increased
Glucose tolerance test AUC relative to ursolic acid (FIG. 5) (male C57BL/6 mice [8]; 7 weeks, 6 h fast, P<0.05): significantly lower
Grip strength relative to ursolic acid (male C57BL/6 mice [8]; P=0.05): significantly improved
